Measured values as given in patent US20180214560A1, “HPMA-DRUG CONJUGATES FOR THE TREATMENT OF ACUTE MYELOID LEUKEMIA” (University of Utah Research Foundation, priority 2015, published 2018).
Read-outs that look alike come from different tables or passages of the source. Blank lines part the entries; values can stand above or below the molecule they belong to.

Columns and labels:
HL-60 human AML cells = assay: In vitro cytotoxicity (CCK-8 assay); format: cell-based
Protocol: The cytotoxicity of free drugs (CYT, DAU, GDC, and JSK) and two polymeric conjugates (P-CYT, P-GDC) against HL-60 was measured using the CCK-8 assay (Dojindo, Kumamoto, Japan). The cells were seeded in 96-well plates at a density of 20,000 cells/well in RPMI-1640 media containing 2 mM L-glutamine and 10% FBS. Then, 50 μL media containing the drugs were added. The cells were incubated with free drugs (CYT, DAU, GDC, and JSK) or the polymeric conjugates (P-CYT, P-GDC) at a range of drug concentrations. After 48 h incubation, the number of viable cells was estimated using the CCK-8 kit according to manufacturer's protocol. After the cells were incubated with the reagent at 37° C. for 4 h, the absorbance was measured using a microplate reader at 450 nm (630 nm as reference). Viability of treated cells was calculated as a percentage of the viability of untreated controls.

[1] = 37 °C, after 48 h, 100 μg CYT/mL
Protocol: The stability of free and HPMA copolymer-bound cytarabine in human plasma was evaluated. […] At selected time points, 5 μL tetrahydrouridine (THU, 1 mg/mL in DI H2O, used as inhibitor of cytidine deaminase to prevent cytarabine from deamination) was added to a vial containing 100 μL sample. For free drug, 1 mL of mixture of acetonitrile/methanol (9:1) was added to precipitate proteins. The vial was vortex-mixed and then centrifuged at 13,000 g for 10 min at 4° C. The supernatant was carefully transferred into a 2 mL vial that was placed into a 40° C. water bath and bubbled with nitrogen. After organic solvents were removed, the resulting dry residue was dissolved in 0.5 mL DI H2O with 0.1% TFA. The sample was filtered and then 10 μL was injected to an analytical C18 column (Zorbax 300SB, 5 μm, 4.6×250 mm) for HPLC analysis. The amount of intact CYT was calculated based on the area under the curve (AUC) recorded at 268 nm wavelength and calibration curve from a series of standard CYT concentrations. To determine the CYT stability in conjugate, 1-amino-2-propanol (10 μL) was added to the sample prior to plasma precipitation in order to cleave CYT from polymer backbone. Then the sample was examined following the same procedure as described above.

HL-60 cells = assay: Cell cycle analysis by flow cytometry (propidium iodide); format: cell-based, human; settings: 48 h; CYT=1 μM; DAU=0.04 μM; GDC=1 μM; JSK=0.5 μM
Protocol: HL-60 cells (2×10^5 cells/mL) were seeded in 6-well plates, and treated with drug alone or different combinations of two drugs at the following concentrations for each: […] JSK=0.5 μM. Following 48-h treatment, cells were harvested, fixed and stained with propidium iodide (PI) at room temperature in the dark. Cell cycle analysis was performed by flow cytometry using BD LSR Fortessa machine (BD Biosciences, San Jose, Calif.). Cell percentages in the different phases of cell cycle were analyzed using FlowJo software (Tree star, Ashland, Oreg.).

[2] = test system: DOX resistant (A2780/AD) human ovarian carcinoma xenografts; settings: resistant tumors (A2780/AD); cited from earlier work
[3] = humans; P-DOX in DOX equivalent; cited from earlier work
[4] = cited from earlier work
[5] = Homo sapiens, HL-60 cells, 48 h incubation, read-out: IC50

CYT still present in human plasma [1]: all free drug disappeared
SMILES: Nc1ccn([C@@H]2O[C@H](CO)[C@@H](O)[C@@H]2O)c(=O)n1 [CYT, cytarabine]
IC50 (HL-60 human AML cells; [5]): 1050 nM
Change of G0/G1 phase population (HL-60 cells): decrease in the G0/G1 population
Change of S phase population (HL-60 cells): arrested the cells in S phase

SMILES: COc1cccc2c1C(=O)c1c(O)c3c(c(O)c1C2=O)C[C@@](O)(C(C)=O)C[C@@H]3O[C@H]1C[C@H](N)[C@H](O)[C@H](C)O1 [DAU, daunorubicin]
IC50 (HL-60 human AML cells; Homo sapiens, HL-60, 48 h): 40 nM
Change of G0/G1 phase population (HL-60 cells): decrease in the G0/G1 population
Change of G2/M phase population (HL-60 cells): accumulate in the G2/M phase

SMILES: COc1cccc2c1C(=O)c1c(O)c3c(c(O)c1C2=O)C[C@@](O)(C(=O)CO)C[C@@H]3O[C@H]1C[C@H](N)[C@H](O)[C@H](C)O1 [DOX, doxorubicin]
Decrease of tumor size [2]: effective only in sensitive tumors
Maximum tolerated dose (MTD) [3]: 60-80 mg/m2

SMILES: Cc1c(CN2CCN(C(=O)[C@H](C)O)CC2)sc2c(N3CCOCC3)nc(-c3cnc(N)nc3)nc12 [GDC, GDC-0980]
IC50 (HL-60 human AML cells; [5]): 750 nM
Change of G0/G1 phase population (HL-60 cells): slight increase in the G0/G1 phase population
Solubility of free GDC [4]: poor solubility

SMILES: CCOC(=O)N1CCN(/[N+]([O-])=N/Oc2ccc([N+](=O)[O-])cc2[N+](=O)[O-])CC1 [JSK, JS-K]
IC50 (HL-60 human AML cells; HL-60 cells, 48 h incubation, read-out: IC50): 440 nM
Change of G0/G1 phase population (HL-60 cells): decrease in the G0/G1 population
Change of G2/M phase population (HL-60 cells): did not make significant changes in those fractions
Change of S phase population (HL-60 cells): did not make significant changes in those fractions
